Organism: Rattus norvegicus
Test: Open TG-GATES - Regimen: Daily Repeat
Type: toxicity, organism-based, Sprague-Dawley
Design: regimen Daily Repeat, gender Male, age 6 weeks
Details: in vivo, po, 1000 mg/kg, route gavage, dose level Middle; for APTT / Bas / Eos / Fbg / Hb / Ht / Lym / MCH / MCHC / MCV / Mono / Neu / PT / Plat / RBC / Ret / WBC: tissue Blood; for KIDNEY_L / KIDNEY_R / KIDNEY_TOTAL: tissue Kidney; for LIVER: tissue Liver; for A/G / ALP / ALT / AST / BUN / CRE / Ca / Cl / DBIL / GLC / IP / K / LDH / Na / PL / RALB / TBIL / TC / TG / TP / gamma-GTP: tissue Plasma

Compound `COc1ccc(O)c(C(C)(C)C)c1.COc1ccc(O)cc1C(C)(C)C` [BUTYLATED HYDROXYANISOLE] has a TERMINAL_BW (72 h, time 3 day) of 219.1 g, an APTT (72 h, time 3 day) of 16.1 s and a Bas (72 h, time 3 day) of 0.3%. The Eos (72 h, time 3 day) was 0.7%, the Fbg (72 h, time 3 day) was 310.6 mg/dL and the Hb (72 h, time 3 day) was 12.6 g/dL. For the same compound, the Ht (72 h, time 3 day) was 36.7%, the Lym (72 h, time 3 day) was 75.6% and the MCH (72 h, time 3 day) was 20.5 pg. For the same compound, the MCHC (72 h, time 3 day) was 34.3%, the MCV (72 h, time 3 day) was 59.6 fL and the Mono (72 h, time 3 day) was 3.1%. The Neu (72 h, time 3 day) was 19.4%, the PT (72 h, time 3 day) was 10.9 s and the Plat (72 h, time 3 day) was 134.7 x10_4/uL. It also gave an RBC (72 h, time 3 day) of 615.6 x10_4/ul, a Ret (72 h, time 3 day) of 3.6% and a WBC (72 h, time 3 day) of 130.3 x10_2/uL. For the same compound, the KIDNEY_L (72 h, time 3 day) was 1 g, the KIDNEY_R (72 h, time 3 day) was 0.9 g and the KIDNEY_TOTAL (72 h, time 3 day) was 1.9 g. It also gave an LIVER (72 h, time 3 day) of 15 g, an A/G (72 h, time 3 day) of 0.8 and an ALP (72 h, time 3 day) of 1334 IU/L. It also gave an ALT (72 h, time 3 day) of 44.6 IU/L, an AST (72 h, time 3 day) of 65.6 IU/L and a BUN (72 h, time 3 day) of 16 mg/dL. The CRE (72 h, time 3 day) was 0.2 mg/dL, the Ca (72 h, time 3 day) was 11.5 mg/dL and the Cl (72 h, time 3 day) was 104.6 meq/L. It also gave a DBIL (72 h, time 3 day) of 0.028 mg/dL, a GLC (72 h, time 3 day) of 171.4 mg/dL and an IP (72 h, time 3 day) of 7 mg/dL. The K (72 h, time 3 day) was 3.9 meq/L, the LDH (72 h, time 3 day) was 71.8 IU/L and the Na (72 h, time 3 day) was 142.4 meq/L. It also gave a PL (72 h, time 3 day) of 200.8 mg/dL, an RALB (72 h, time 3 day) of 2.6 g/dL and a TBIL (72 h, time 3 day) of 0.092 mg/dL. For the same compound, the TC (72 h, time 3 day) was 115.2 mg/dL, the TG (72 h, time 3 day) was 76.2 mg/dL and the TP (72 h, time 3 day) was 5.9 g/dL. For the same compound, the gamma-GTP (72 h, time 3 day) was 1.6 IU/L, the TERMINAL_BW ([…], time 7 day) was 247 g and the TERMINAL_BW ([…], time 14 day) was 309.8 g. It also gave a TERMINAL_BW ([…], time 28 day) of 393.4 g, an APTT ([…], time 7 day) of 16.2 s and a Bas ([…], time 7 day) of 0.3%. For the same compound, the Eos ([…], time 7 day) was 0.6%, the Fbg ([…], time 7 day) was 341 mg/dL and the Hb ([…], time 7 day) was 13.3 g/dL. It also gave a Ht ([…], time 7 day) of 38.5%, a Lym ([…], time 7 day) of 79% and an MCH ([…], time 7 day) of 20.6 pg. It also gave an MCHC ([…], time 7 day) of 34.5%, an MCV ([…], time 7 day) of 59.7 fL and a Mono ([…], time 7 day) of 2%. For the same compound, the Neu ([…], time 7 day) was 17.1%, the PT ([…], time 7 day) was 11.6 s and the Plat ([…], time 7 day) was 156.6 x10_4/uL. The RBC ([…], time 7 day) was 645.8 x10_4/ul, the Ret ([…], time 7 day) was 5.7% and the WBC ([…], time 7 day) was 119.3 x10_2/uL. It also gave an APTT ([…], time 14 day) of 19.6 s, a Bas ([…], time 14 day) of 0.3% and an Eos ([…], time 14 day) of 0.7%. The Fbg ([…], time 14 day) was 334.2 mg/dL, the Hb ([…], time 14 day) was 13.6 g/dL and the Ht ([…], time 14 day) was 39.6%. For the same compound, the Lym ([…], time 14 day) was 76.3%, the MCH ([…], time 14 day) was 19.9 pg and the MCHC ([…], time 14 day) was 34.3%. For the same compound, the MCV ([…], time 14 day) was 57.9 fL, the Mono ([…], time 14 day) was 2.4% and the Neu ([…], time 14 day) was 19.6%. The PT ([…], time 14 day) was 11.8 s, the Plat ([…], time 14 day) was 132.4 x10_4/uL and the RBC ([…], time 14 day) was 684.8 x10_4/ul. For the same compound, the Ret ([…], time 14 day) was 3.9%, the WBC ([…], time 14 day) was 105.1 x10_2/uL and the APTT ([…], time 28 day) was 20.3 s. The Bas ([…], time 28 day) was 0.4%, the Eos ([…], time 28 day) was 1% and the Fbg ([…], time 28 day) was 290.2 mg/dL. For the same compound, the Hb ([…], time 28 day) was 14.7 g/dL, the Ht ([…], time 28 day) was 41.5% and the Lym ([…], time 28 day) was 77.6%. It also gave an MCH ([…], time 28 day) of 19.5 pg, an MCHC ([…], time 28 day) of 35.4% and an MCV ([…], time 28 day) of 55 fL. It also gave a Mono ([…], time 28 day) of 1.8%, a Neu ([…], time 28 day) of 18.4% and a PT ([…], time 28 day) of 12.1 s. It also gave a Plat ([…], time 28 day) of 119.1 x10_4/uL, an RBC ([…], time 28 day) of 754.6 x10_4/ul and a Ret ([…], time 28 day) of 2.2%. The WBC ([…], time 28 day) was 117.9 x10_2/uL, the KIDNEY_L ([…], time 7 day) was 1 g and the KIDNEY_R ([…], time 7 day) was 1 g. The KIDNEY_TOTAL ([…], time 7 day) was 2 g, the KIDNEY_L ([…], time 14 day) was 1.2 g and the KIDNEY_R ([…], time 14 day) was 1.1 g. For the same compound, the KIDNEY_TOTAL ([…], time 14 day) was 2.3 g, the KIDNEY_L ([…], time 28 day) was 1.3 g and the KIDNEY_R ([…], time 28 day) was 1.3 g. It also gave a KIDNEY_TOTAL ([…], time 28 day) of 2.6 g, an LIVER ([…], time 7 day) of 13.6 g and an LIVER ([…], time 14 day) of 18 g. It also gave an LIVER ([…], time 28 day) of 20 g, an A/G ([…], time 7 day) of 0.8 and an ALP ([…], time 7 day) of 1105 IU/L. For the same compound, the ALT ([…], time 7 day) was 35.6 IU/L, the AST ([…], time 7 day) was 56.8 IU/L and the BUN ([…], time 7 day) was 16.4 mg/dL. The CRE ([…], time 7 day) was 0.2 mg/dL, the Ca ([…], time 7 day) was 11.3 mg/dL and the Cl ([…], time 7 day) was 105.4 meq/L. The DBIL ([…], time 7 day) was 0.024 mg/dL, the GLC ([…], time 7 day) was 171.8 mg/dL and the IP ([…], time 7 day) was 6.8 mg/dL. The K ([…], time 7 day) was 3.7 meq/L, the LDH ([…], time 7 day) was 62.8 IU/L and the Na ([…], time 7 day) was 143 meq/L. It also gave a PL ([…], time 7 day) of 188.2 mg/dL, an RALB ([…], time 7 day) of 2.8 g/dL and a TBIL ([…], time 7 day) of 0.054 mg/dL. It also gave a TC ([…], time 7 day) of 103.4 mg/dL, a TG ([…], time 7 day) of 144.4 mg/dL and a TP ([…], time 7 day) of 6.4 g/dL. It also gave a gamma-GTP ([…], time 7 day) of 1.2 IU/L, an A/G ([…], time 14 day) of 0.7 and an ALP ([…], time 14 day) of 1071.8 IU/L. The ALT ([…], time 14 day) was 36.8 IU/L, the AST ([…], time 14 day) was 56.8 IU/L and the BUN ([…], time 14 day) was 19 mg/dL. The CRE ([…], time 14 day) was 0.2 mg/dL, the Ca ([…], time 14 day) was 11.1 mg/dL and the Cl ([…], time 14 day) was 105 meq/L. The DBIL ([…], time 14 day) was 0.022 mg/dL, the GLC ([…], time 14 day) was 169 mg/dL and the IP ([…], time 14 day) was 5.9 mg/dL. For the same compound, the K ([…], time 14 day) was 3.8 meq/L, the LDH ([…], time 14 day) was 50 IU/L and the Na ([…], time 14 day) was 143.6 meq/L. The PL ([…], time 14 day) was 199.8 mg/dL, the RALB ([…], time 14 day) was 2.8 g/dL and the TBIL ([…], time 14 day) was 0.046 mg/dL. For the same compound, the TC ([…], time 14 day) was 103 mg/dL, the TG ([…], time 14 day) was 164.8 mg/dL and the TP ([…], time 14 day) was 6.6 g/dL. The gamma-GTP ([…], time 14 day) was 1.8 IU/L, the A/G ([…], time 28 day) was 0.7 and the ALP ([…], time 28 day) was 853 IU/L. For the same compound, the ALT ([…], time 28 day) was 35.6 IU/L, the AST ([…], time 28 day) was 55.6 IU/L and the BUN ([…], time 28 day) was 17.4 mg/dL. The CRE ([…], time 28 day) was 0.3 mg/dL, the Ca ([…], time 28 day) was 11.2 mg/dL and the Cl ([…], time 28 day) was 104.4 meq/L. For the same compound, the DBIL ([…], time 28 day) was 0.018 mg/dL, the GLC ([…], time 28 day) was 183.8 mg/dL and the IP ([…], time 28 day) was 5.8 mg/dL. For the same compound, the K ([…], time 28 day) was 3.4 meq/L, the LDH ([…], time 28 day) was 58.2 IU/L and the Na ([…], time 28 day) was 145.2 meq/L. For the same compound, the PL ([…], time 28 day) was 161 mg/dL, the RALB ([…], time 28 day) was 2.7 g/dL and the TBIL ([…], time 28 day) was 0.058 mg/dL. For the same compound, the TC ([…], time 28 day) was 88.4 mg/dL, the TG ([…], time 28 day) was 115.4 mg/dL and the TP ([…], time 28 day) was 6.5 g/dL. The gamma-GTP ([…], time 28 day) was 1.4 IU/L.

Source: ChEMBL document CHEMBL3885861, “Open TG-GATES”
